Values after ≈ are worked out from the molar mass of the structure shown. Active and inactive are the calls of the source. The calls are words filed in the database; no cut-off is given here.
Tests used:
[1] = system: Cell membrane; assay: Disruption of cell membrane integrity in Staphylococcus aureus ATCC 25923 assessed as increase in blue fluorescence at 0.5 ug/ml incubated for 1 hr by […] and propidium iodide double staining based confocal microscopic analysis; format: cell membranes; details: dose 0.5 µg/ml
[2] = system: Staphylococcus aureus; assay: (§1) Antibacterial activity against methicillin resistant Staphylococcus aureus ATCC 33592 infected in cyclophosphamide-induced immunosuppressed Kunming mouse assessed as reduction in histopathological change in lung at 25 to 50 mg/kg,po administration measured after 24 hrs by hematoxylin and eosin staining based microscopy; format: functional, organism-based; details: dose 25-50 mg/kg
[3] = system: Cell membrane; assay: Disruption of cell membrane in methicillin resistant Staphylococcus aureus ATCC 33592 assessed as cell lysis at 0.5 ug/ml incubated for 6 hrs by Scanning electron microscopic analysis; format: cell membranes; details: dose 0.5 µg/ml
[4] = system: Staphylococcus aureus; assay: Antibacterial activity against methicillin resistant Staphylococcus aureus ATCC 33592 infected in cyclophosphamide-induced immunosuppressed Kunming mouse by measuring survival rate of mouse at 25 mg/kg,po administration measured for 7 days; format: functional; details: ATCC 33592, 168 h, time 7 day
[5] = Metabolic stability in ICR mouse liver microsomes assessed as compound remaining at 10 uM incubated for 60 mins in absence of NADPH by LC-MS/MS analysis; format: ADME, Microsome; details: read-out: Stability
[6] = system: Staphylococcus epidermidis; assay: Antibacterial activity against methicillin resistant Staphylococcus epidermidis clinical isolate 20-2 assessed as inhibition of bacterial growth incubated for 7 days by alamar blue assay; format: functional; details: clinical isolate 20-2, 168 h, time 7 day
[7] = Plasma protein binding in BALB/c mouse at 1 mg/kg,iv administration measured upto 24 hrs by LC-MS/MS analysis; format: ADME, organism-based; details: read-out: PPB (converted)
[8] = Drug concentration in BALB/c mouse plasma at 10 mg/kg,po administration measured within 15 mins by LC-MS/MS analysis; format: ADME, organism-based
[9] = system: Staphylococcus aureus; assay: Inhibition of protein synthesis in Staphylococcus aureus ATCC 29213 by translation assay; format: functional, organism-based
[10] = system: Staphylococcus aureus; assay: Antibacterial activity against Linezolid resistant Staphylococcus aureus clinical isolate 20-2 assessed as inhibition of bacterial growth incubated for 7 days by alamar blue assay; format: functional; details: clinical isolate 20-2, 168 h, time 7 day
[11] = system: Cell membrane; assay: Disruption of cell membrane in methicillin resistant Staphylococcus aureus ATCC 33592 assessed as damage in bacterial cell envelope at 0.5 ug/ml incubated for 30 mins by Scanning electron microscopic analysis; format: cell membranes; details: dose 0.5 µg/ml
[12] = system: Staphylococcus aureus; assay: as §1, with “inflammatory cell infiltration” for “histopathological change”, “10” for “25”; format: functional, organism-based; details: dose 10-50 mg/kg
[13] = system: Staphylococcus epidermidis; assay: Antibacterial activity against methicillin resistant Staphylococcus epidermidis clinical isolate 20-1 assessed as inhibition of bacterial growth incubated for 7 days by alamar blue assay; format: functional; details: clinical isolate 20-1, 168 h, time 7 day
[14] = system: Staphylococcus aureus; assay: Antibacterial activity against methicillin resistant Staphylococcus aureus ATCC 33592 infected in cyclophosphamide-induced immunosuppressed Kunming mouse assessed as increase in body weight at 10 to 50 mg/kg,po administration measured for 7 days; format: functional, organism-based; details: dose 10-50 mg/kg, time 7.0 day
[15] = system: Cell membrane; assay: Disruption of cell membrane integrity in Staphylococcus aureus ATCC 25923 assessed as increase in red fluorescence at 0.5 ug/ml incubated for 1 hr by […] and propidium iodide double staining based confocal microscopic analysis; format: cell membranes; details: dose 0.5 µg/ml
[16] = AUC (0 to t) in BALB/c mouse at 10 mg/kg,po administration measured upto 24 hrs by LC-MS/MS analysis; format: ADME, organism-based; details: in vivo
[17] = Metabolic stability in ICR mouse liver microsomes assessed as substrate remaining at 10 uM incubated for 60 mins in presence of NADPH by LC-MS/MS analysis; format: ADME, Microsome; details: read-out: Stability
[18] = system: Staphylococcus epidermidis; assay: Antibacterial activity against Staphylococcus epidermidis ATCC12228 assessed as inhibition of bacterial growth incubated for 18 hrs by microdilution broth assay; format: functional
[19] = Tmax in BALB/c mouse at 10 mg/kg,po administration measured upto 24 hrs by LC-MS/MS analysis; format: ADME, organism-based; details: in vivo
[20] = Cytotoxicity against African green monkey Vero cells incubated for 48 hrs by MTT assay; format: toxicity, cell-based, Chlorocebus sabaeus
[21] = Metabolic stability in human liver microsomes assessed as substrate remaining at 10 uM incubated for 60 mins in presence of NADPH by LC-MS/MS analysis; format: ADME, Microsome; details: read-out: Stability
[22] = system: Staphylococcus aureus; assay: Antibacterial activity against Linezolid resistant Staphylococcus aureus clinical isolate 20-1 assessed as inhibition of bacterial growth incubated for 7 days by alamar blue assay; format: functional; details: clinical isolate 20-1, 168 h, time 7 day
[23] = system: Staphylococcus aureus; assay: Induction of resistant development in methicillin resistant Staphylococcus aureus ATCC 33592 assessed as fold increase in MIC at 0.5 to 4 ug/ml measured after 30 serial passages by broth microdilution analysis; format: functional; details: dose 0.5-4 µg/ml
[24] = system: Cell membrane; assay: Disruption of cell membrane integrity in methicillin resistant Staphylococcus aureus ATCC 33592 assessed as increase in blue fluorescence at 0.5 ug/ml incubated for 1 hr by […] and propidium iodide double staining based confocal microscopic analysis; format: cell membranes; details: dose 0.5 µg/ml
[25] = system: Mycobacterium tuberculosis; assay: Antibacterial activity against Mycobacterium tuberculosis H37Rv assessed as inhibition of bacterial growth incubated for 7 days by alamar blue assay; format: functional; details: 168 h, time 7 day
[26] = system: Staphylococcus aureus; assay: as §1, with “spleen” for “lung”, “10” for “25 to 50”; format: functional, organism-based
[27] = system: Staphylococcus aureus; assay: Antibacterial activity against methicillin resistant Staphylococcus aureus ATCC 33592 infected in cyclophosphamide-induced immunosuppressed Kunming mouse by measuring survival rate of mouse at 10 mg/kg,po administration measured for 7 days; format: functional; details: ATCC 33592, 168 h, time 7 day
[28] = system: Staphylococcus aureus; assay: Antibacterial activity against methicillin resistant Staphylococcus aureus ATCC 33592 infected in cyclophosphamide-induced immunosuppressed Kunming mouse assessed as increase in IL-10 level at po administration measured after 24 hrs by ELISA; format: functional, organism-based
[29] = system: Staphylococcus aureus; assay: as §1, with “inflammatory cell infiltration” for “histopathological change”, “kidney” for “lung”, “at” for “at 25 to”; format: functional, organism-based
[30] = AUC (0 to infinity) in BALB/c mouse at 1 mg/kg,iv administration measured upto 24 hrs by LC-MS/MS analysis; format: ADME, organism-based; details: BALB/c, in vivo
[31] = system: Staphylococcus aureus; assay: Bacteriostatic activity against methicillin resistant Staphylococcus aureus ATCC 33592 at 1 times MIC incubated for 2 to 24 hrs by time-kill assay; format: functional, organism-based; details: time 2-24 hrs
[32] = system: Enterococcus faecalis; assay: Antibacterial activity against Enterococcus faecalis ATCC29212 assessed as inhibition of bacterial growth incubated for 18 hrs by microdilution broth assay; format: functional
[33] = Cmax in BALB/c mouse at 10 mg/kg,po administration measured upto 24 hrs by LC-MS/MS analysis; format: ADME, organism-based; details: in vivo
[34] = Metabolic stability in human liver microsomes assessed as compound remaining at 10 uM incubated for 60 mins in absence of NADPH by LC-MS/MS analysis; format: ADME, Microsome; details: read-out: Stability
[35] = system: Staphylococcus aureus; assay: as §1, with “congestion” for “histopathological change”, “spleen” for “lung”, “at” for “at 25 to”; format: functional, organism-based
[36] = Volume of distribution in BALB/c mouse at 1 mg/kg,iv administration measured upto 24 hrs by LC-MS/MS analysis; format: ADME, organism-based; details: in vivo

**Q.** For CC(=O)NC[C@@H]1OC(=O)N2Cc3cc(-c4ccc(C#N)cc4)c(F)cc3O[C@@H]12, which Activity [1] is on record?
**A.** Its Activity is “Active”.

**Q.** What about the Activity [2] of the same compound?
**A.** Its Activity is “Active”.

**Q.** What about the Activity [3] of the same compound?
**A.** The Activity was “Active”.

**Q.** And the survival at 25 mg/kg [4]?
**A.** The survival at 25 mg/kg was 100%.

**Q.** What about the remaining at 1 h, 10 µM [5] of the same compound?
**A.** The remaining at 1 h, 10 µM was 101%.

**Q.** What about the MIC [6] of the same compound?
**A.** Its MIC is 0.06 µg/mL (≈ 0.157 µM).

**Q.** What about the fraction unbound at 24 h [7] of the same compound?
**A.** The fraction unbound at 24 h was 0.239.

**Q.** What about the concentration at 0.25 h [8] of the same compound?
**A.** Its concentration at 0.25 h is 1000 ng/mL.

**Q.** What about the IC50 [9] of the same compound?
**A.** The IC50 was 1.5 µg/mL (≈ 3.93 µM).

**Q.** What about the MIC [10] of the same compound?
**A.** Its MIC is 8 µg/mL (≈ 21 µM).

**Q.** And the Activity [11]?
**A.** Its Activity is “Active”.

**Q.** What about the Activity [12] of the same compound?
**A.** The Activity was “Active”.

**Q.** What about the MIC [13] of the same compound?
**A.** Its MIC is 0.06 µg/mL (≈ 0.157 µM).

**Q.** And the Activity [14]?
**A.** The Activity was “Active”.

**Q.** What about the Activity [15] of the same compound?
**A.** Its Activity is “Active”.

**Q.** What about the AUC(0-t) at 24 h [16] of the same compound?
**A.** Its AUC(0-t) at 24 h is 62500 ng·h/mL.

**Q.** And the remaining at 1 h, 10 µM [17]?
**A.** Its remaining at 1 h, 10 µM is 100%.

**Q.** What about the MIC [18] of the same compound?
**A.** Its MIC is 0.032 µg/mL (≈ 0.0839 µM).

**Q.** And the Tmax [19]?
**A.** The Tmax was 2 h.

**Q.** What about the IC50 at 48 h [20] of the same compound?
**A.** The IC50 at 48 h was 35 µg/mL (≈ 91.8 µM).

**Q.** What about the remaining at 1 h, 10 µM [21] of the same compound?
**A.** The remaining at 1 h, 10 µM was 116%.

**Q.** And the MIC [22]?
**A.** The MIC was 8 µg/mL (≈ 21 µM).

**Q.** What about the fold change (FC) [23] of the same compound?
**A.** The fold change (FC) was 8.

**Q.** And the Activity [24]?
**A.** Its Activity is “Active”.

**Q.** And the MIC [25]?
**A.** Its MIC is 0.52 µg/mL (≈ 1.36 µM).

**Q.** And the Activity [26]?
**A.** Its Activity is “Active”.

**Q.** And the survival at 10 mg/kg [27]?
**A.** The survival at 10 mg/kg was 85.7%.

**Q.** And the Activity [28]?
**A.** The Activity was “Dose-Dependent Effect”.

**Q.** What about the Activity [29] of the same compound?
**A.** The Activity was “Active”.

**Q.** And the AUC(0-inf) [30]?
**A.** The AUC(0-inf) was 5130 ng·h/mL.

**Q.** And the Activity [31]?
**A.** Its Activity is “Active”.

**Q.** What about the MIC [32] of the same compound?
**A.** The MIC was 1 µg/mL (≈ 2.62 µM).

**Q.** What about the Cmax [33] of the same compound?
**A.** Its Cmax is 4510 ng/mL.

**Q.** And the remaining at 1 h, 10 µM [34]?
**A.** Its remaining at 1 h, 10 µM is 120%.

**Q.** What about the Activity [35] of the same compound?
**A.** The Activity was “Active”.

**Q.** What about the Vd [36] of the same compound?
**A.** Its Vd is 1.94 L/kg.
